Laboratory results reported in patent publication US6713274B2, “Method for identifying modulators of sulfotransferase activity” (The Regents of the University of California, priority 2002, dated 2004).

Legend:
[1] = biological target: T1, sulfotransferase domain of human NDST-1 (Homo sapiens, UniProt P52848); assay: Dot-blot assay for NDST-1 (sulfation of de-N-sulfated heparin with 35S-PAPS); assay type: biochemical; settings: FIG. 5A Lineweaver-Burk plot
T1 construct: A plasmid containing the sulfotransferase domain of human NDST-1 fused to glutathione S-transferase; glutathione S-transferase (cleaved yes); made in house
T1 sequence (P52848 599-882 limits assumed): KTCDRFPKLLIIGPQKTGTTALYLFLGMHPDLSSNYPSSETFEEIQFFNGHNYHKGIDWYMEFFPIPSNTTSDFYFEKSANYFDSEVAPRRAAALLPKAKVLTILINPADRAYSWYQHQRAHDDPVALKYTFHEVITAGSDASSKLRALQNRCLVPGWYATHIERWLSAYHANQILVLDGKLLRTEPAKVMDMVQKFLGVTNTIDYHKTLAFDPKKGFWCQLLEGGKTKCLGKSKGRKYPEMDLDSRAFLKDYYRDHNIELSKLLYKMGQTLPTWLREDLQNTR
Experimental: For the NDST-1 assay, de-N-sulfated heparin (0.02-0.1 mg) and 0.1 μg of enzyme were added to 50 mM HEPES-NaOH (pH 7.0), 0.15 M NaCl, 0.75 mg/mL protamine, 0.4% Triton X-100, 15% glycerol in a total volume of 25 μL in a 96-well plate. Reactions were initiated with 0.15 μM ^35S-labeled PAPS (“^35S-PAPS”)(0.1-0.5 μCi per reaction), incubated at 25° C. for 15 min, and terminated by the addition of 30 μL of MeOH. A 15-μL aliquot was removed from each well and diluted 100-fold, and 15-25 μL were then transferred to the wells of the dot-blot apparatus. A vacuum was applied, and the wells were washed and eluted as described below. Control reactions with heat-killed (100° C., 5 min) enzyme were included to monitor background binding of ^35S-PAPS and ^35S-SO4^2− to the membrane after washing.
(§1) Hybond-N+ membranes were pre-wetted with H2O and Hybond-P membranes were pre-wetted with MeOH before assembling the dot-blot apparatus. The quenched and diluted reactions were added to the wells, and a vacuum was applied to load products onto the membrane. To elute ^35S-PAPS while retaining ^35S-labeled heparin or GlcNAc-PAA on the membrane, the wells were washed twice with 40 μL of PAPS elution buffer (EB) ((NH4)2SO4 pH 3.0), while maintaining a gentle vacuum. […] The amount of ^35S-labeled product associated with the membrane was then quantified by phosphorimaging.

[2] = biological target: T2, GST-3 (Homo sapiens, UniProt Q8NCG5); assay: Dot-blot assay for GST-3 (sulfation of β-GlcNAc-PAA with 35S-PAPS); assay type: biochemical; settings: FIG. 5B Lineweaver-Burk plot
T2 sequence (Q8NCG5 1-386): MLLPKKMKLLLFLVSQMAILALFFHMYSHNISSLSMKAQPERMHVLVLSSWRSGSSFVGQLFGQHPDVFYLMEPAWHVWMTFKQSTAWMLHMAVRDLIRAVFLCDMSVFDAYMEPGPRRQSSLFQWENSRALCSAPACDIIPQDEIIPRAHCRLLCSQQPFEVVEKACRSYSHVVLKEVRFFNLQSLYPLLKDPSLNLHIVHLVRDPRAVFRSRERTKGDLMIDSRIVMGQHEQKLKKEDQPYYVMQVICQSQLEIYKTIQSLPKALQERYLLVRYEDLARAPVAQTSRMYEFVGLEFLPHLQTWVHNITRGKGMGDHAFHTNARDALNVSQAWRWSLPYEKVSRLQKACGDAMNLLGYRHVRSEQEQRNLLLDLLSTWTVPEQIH
Experimental: A typical assay included an appropriate volume of enzyme solution, 0.6-1.0 μg of β-GlcNAc-PAA, 0.1% Triton X-100, 10% glycerol, 4 mM Mg(OAc)2, 10 mM NaF, 1 mM ATP, in 30 mM HEPES-NaOH (pH 6.0), diluted to a total volume of 25 μL in a 96-well plate. Reactions were initiated with 2.0 μM ^35S-PAPS (0.1-0.5 μCi per reaction), incubated at 25° C. for 2 h, and terminated with 30 μL of MeOH. A 15-μL aliquot was removed from each well and diluted 100-fold, and 15-25 μL of the solution were transferred to the wells of the dot-blot apparatus. A vacuum was applied, and the wells were washed and eluted as described below. Control reactions with heat-killed enzyme were included to monitor background binding of ^35S-PAPS and ^35S-SO4^2− to the membrane after washing.
as §1

mode of enzyme inhibition (double reciprocal plots of signal versus PAPS concentration) [1]: competitive inhibitor
mode of enzyme inhibition (double reciprocal plots of signal versus PAPS concentration) [2]: competitive inhibitor
Compound: Nc1ncnc2c1ncn2[C@@H]1O[C@H](COP(=O)(O)O)[C@@H](OP(=O)(O)O)[C@H]1O [3′,5′-ADP]
